Results on 6 molecules are retold here after patent US3970651A, “Crystalline cephalosporin derivative” (priority 1974, dated 1976).

The subject of data set [1] is S. aureus 209P (A.T.C.C. 6538P). As to the kind of experiment: Bioassay, turbidometric. It is filed as cell-based.
For data set [2] the following is noted: for Behaviour when suspended in water: aqueous suspension.
The subject of data set [3] is bacterial infections. As to the kind of experiment: In vitro antibacterial potency and spectrum. It is filed as cell-based.
Data set [4] deals with bacterial infections. Description: In vivo antibacterial activity.
The nature of a further data set: Water solubility. The data set is classed as physicochemical. The following applies: in water at 23° C.
Data set [5] is described as follows: Heat stability / loss of bioactivity of the solid on storage at elevated temperatures.
A short description of the next data set: in vivo. As to conditions: dog, po, 30 mg/kg. On the procedure:
Three beagle dogs (mean weight of 8.2 ± 0.4 kg.) were administered 200 mesh 7-[D-α-amino-α-(p-hydroxyphenyl)acetamido]-3-(1,2,3-triazol-5-ylthiomethyl)-3-cephem-4-carboxylic acid propylene glycolate (bioassay 820 mcg./mgm.) orally at doses of 30 mg. of activity/kg. in hard gelatin capsules. All doses and concentrations reported herein are in terms of the amphoteric material and were corrected for differences in biopotency.

Setting [6] is: allowance made for inert propylene glycol.

In brackets after ≈: the same amount, converted by molar mass. Several values for one entry are separate records, joined by “and”; a condition that tells them apart may be missing. Equal entries are not always repeated. Where two headings read alike, the source gives them in different places.

`CO.N[C@@H](C(=O)NC1C(=O)N2C(C(=O)O)=C(CSc3cnn[nH]3)CS[C@H]12)c1ccc(O)cc1` (stereo partly drawn) [BL-S640 methanolate, 7-[D-α-amino-α-(p-hydroxyphenyl)acetamido]-3-(1,2,3-triazol-5-ylthiomethyl)-3-cephem-4-carboxylic acid Methanolate]: the Bio-assay in data set [1] fell in the range of 850 to 900 µg/mg.

Consider `N[C@@H](C(=O)NC1C(=O)N2C(C(=O)O)=C(CSc3c[nH]nn3)CSC12)c1ccc(O)cc1` (stereo partly drawn) [BL-S640 mono-methanolate], for which the Bio-assay in data set [1] is on record as 930-960 units/mg.

Turning to `C=CC.N[C@@H](C(=O)NC1C(=O)N2C(C(=O)O)=C(CSc3cnn[nH]3)CS[C@H]12)c1ccc(O)cc1.O=C(O)CO` (stereo partly drawn) [BL-S640 mono-propylene glycolate, 7-[D-α-amino-α-(p-hydroxyphenyl)acetamido]-3-(1,2,3-triazol-5-ylthiomethyl)-3-cephem-4-carboxylic acid mono-propylene glycolate], the “Behaviour when suspended in water” value in data set [2] is “does not lose biological activity or crystallinity and does not oil, suspend unevenly, clump, settle out or become tacky”. In the data set with bacterial infections [3] (setting [6]), the “Potency and spectrum in vivo and in vitro versus the zwitterion product” value is “substantially the same potency and spectrum in vivo and in vitro”. In data set [1], this molecule yielded a Bio-assay of 865 µg/mg. The calculated potency in data set [1] (15.6% 1,2-propylene glycol, 0.3% water) was 865 µg/mg. Also, the “Potency and spectrum in vivo versus the zwitterion product” value in the data set with bacterial infections [4] (setting [6]) was “substantially the same potency and spectrum in vivo and in vitro”.

As a reminder, the solubility is the dissolved amount per volume that the medium holds. The low end stands for little dissolved substance, the high end for much dissolved substance. A word on the half-life: it is how long it takes for the measured level to halve. Low values mean fast loss, high ones slow loss. Consider `N[C@@H](C(=O)NC1C(=O)N2C(C(=O)O)=C(CSc3c[nH]nn3)CSC12)c1ccc(O)cc1` (stereo partly drawn) [BL-S640 propylene glycolate, 7-[D-α-amino-α-(p-hydroxyphenyl)acetamido]-3-(1,2,3-triazol-5-ylthiomethyl)-3-cephem-4-carboxylic acid 1,2-propylene glycolate], for which the “Behaviour when suspended in water” value in data set [2] (listed as propylene glycolate) is given as “does not lose biological activity, lose crystallinity, suspend unevenly, oil, clump, settle out or become tacky”. For the same molecule, in the data set with bacterial infections [3] (in vitro, versus Ser. No. 318,340), the “In vitro potency and spectrum of activity” value was “exhibits the potency and spectrum of activity reported in the above-referenced application Ser. No. 318,340 in a qualitative sense and usually also quantitatively except when it is possible to observe slightly less activity due to its content of the biologically inert propylene glycol”. The bioassay in data set [1] (200 mesh lot dosed to dogs) was found to be 820 mcg./mgm. This molecule also returned an assigned potency in data set [1] (bioassay standard, 16.7% 1,2-propylene glycol, 0.3% water) of 820 mcg./mgm. In data set [1] (capsule blend), the “potency of composite blend” value is 834 µg/mg. In data set [1] (listed as 1,2-propylene glycolate), this molecule had a Bio-assay of 800 to 850 µg/mg. For the same molecule, the Bio-assay in data set [1] (listed as propylene glycolate) is 750 to 790 µg/mg and 800 to 860 µg/mg. In “Water solubility”, this molecule yielded a solubility of approximately 10 mg/mL (≈ 21.6 mM). Besides, the “Loss of bioactivity on storage as a solid” value in data set [5] (56°C., one month, usual stringent test conditions) is “no more than ten”. Further, in data set [5] (solid), the degraded at 24 h was less than 6%, the degraded at 48 h is less than 12% and the degraded at 720 h is less than 10%. For the same molecule, in “in vivo”, the concentration at 0.08 h worked out at 0.04 µg/mL, the concentration at 0.25 h was determined as 0.3 ± 0.1 µg/mL, the concentration at 0.5 h stood at 5.9 ± 2 µg/mL and the concentration at 1.05 h stood at 8.4 µg/mL. Further, in the data set “in vivo”, the concentration at 1.5 h was 17.7 ± 2 µg/mL, the concentration at 2 h amounted to 18.7 ± 0.9 µg/mL, the concentration at 3 h is 13.7 ± 1.2 µg/mL and the concentration at 4 h turned out to be 8.4 ± 1.3 µg/mL. Moreover, in the data set “in vivo”, the concentration at 6 h came to 3.2 ± 0.4 µg/mL, the concentration at 8 h was determined as 1.6 ± 0.2 µg/mL and the half-life was approximately 1.36 h. Besides, the In vivo results in the data set on bacterial infections [4] (dosed on a potency basis in terms of the zwitterion) is “substantially the same”.

Turning to `N[C@@H](C(=O)NC1C(=O)N2C(C(=O)O)=C(CSc3cnn[nH]3)CS[C@H]12)c1ccc(O)cc1` (stereo partly drawn) [BL-S640, 7-[D-α-amino-α-(p-hydroxyphenyl)acetamido]-3-(1,2,3-triazol-5-ylthiomethyl)-3-cephem-4-carboxylic acid], the “Degradation in water at alkaline pH” value in data set [2] (pH 7) is listed as “degrades very rapidly, as by loss of the thiol moiety”.

As for `N[C@@H](C(=O)NC1C(=O)N2C(C(=O)O)=C(CSc3c[nH]nn3)CSC12)c1ccc(O)cc1` (stereo partly drawn) [ethanolate], the “Behaviour when suspended in water” value in data set [2] was “gradually lost its ethanol to change into a solid tacky form which lost crystallinity, did not suspend evenly and gummed in time”.
